Reference: patent US10259808B2 (Genentech, Inc., priority 2015, dated 2019)

Target: T1, RORc ligand binding domain (Homo sapiens, UniProt P51449)
T1 sequence (P51449 269-508 limits assumed): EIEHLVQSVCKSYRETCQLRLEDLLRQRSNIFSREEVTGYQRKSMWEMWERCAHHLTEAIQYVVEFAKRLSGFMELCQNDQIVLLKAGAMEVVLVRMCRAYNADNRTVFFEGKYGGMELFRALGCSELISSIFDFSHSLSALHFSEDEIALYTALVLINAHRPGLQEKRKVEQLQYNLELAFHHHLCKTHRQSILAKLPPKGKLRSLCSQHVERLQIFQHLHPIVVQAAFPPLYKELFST
Experiment: In vitro RORc ligand binding assay (25-[3H]hydroxycholesterol displacement)

`C[C@H]1CC[C@H](c2ccccc2)S(=O)(=O)N1Cc1cc(F)c([C@]2(COc3cnccn3)C[C@](C)(O)C2)cc1F` (racemic) [Example 180, 3-[2,5-difluoro-4-[[rac-(3S,6R)-3-methyl-1,1-dioxo-6-phenyl-thiazinan-2-yl]methyl]phenyl]-1-methyl-3-(pyrazin-2-yloxymethyl)cyclobutanol] gave an IC50 of 0.008 µM.

`C[C@H]1CC[C@@H](c2ccccc2)S(=O)(=O)N1Cc1cc(F)c(C2(c3n[nH]c(=O)o3)CCC2)cc1F` [Example 143, 5-[1-[2,5-difluoro-4-[[(3S,6S)-3-methyl-1,1-dioxo-6-phenyl-thiazinan-2-yl]methyl]phenyl]cyclobutyl]-3H-1,3,4-oxadiazol-2-one] gave an IC50 of 0.151 µM.

With `C[C@H]1CC[C@H](c2ccccc2)S(=O)(=O)N1Cc1cc(F)c(C2(NCc3ccn[nH]3)CCOCC2)cc1F` [Example 73, 4-[2,5-difluoro-4-[[(3S,6R)-3-methyl-1,1-dioxo-6-phenyl-thiazinan-2-yl]methyl]phenyl]-N-(1H-pyrazol-5-ylmethyl)tetrahydropyran-4-amine] the IC50 was 0.0029 µM.

Molecule `C[C@H]1CC[C@H](c2ccccc2)S(=O)(=O)N1Cc1cc(F)c(C2(NCc3ncco3)COC2)cc1F` [Example 88, 3-[2,5-difluoro-4-[[(3S,6R)-3-methyl-1,1-dioxo-6-phenyl-thiazinan-2-yl]methyl]phenyl]-N-(oxazol-2-ylmethyl)oxetan-3-amine] has an IC50 of 0.0082 µM.

Molecule `C[C@H]1CC[C@H](c2ccccc2)S(=O)(=O)N1Cc1cc(F)c(C2(NCC3CCOC3)COC2)cc1F` (stereo partly drawn) [Example 136, 3-[2,5-difluoro-4-[[(3S,6R)-3-methyl-1,1-dioxo-6-phenyl-thiazinan-2-yl]methyl]phenyl]-N-(tetrahydrofuran-3-ylmethyl)oxetan-3-amine] has an IC50 of 0.0239 µM.

`C[C@H]1CC[C@H](c2ccccc2)S(=O)(=O)N1Cc1ccc(C2(C(=O)NC3CCOCC3)CCOCC2)cc1F` was tested, and the IC50 was 0.171 µM.

With `Cc1nnc(C2(c3cc(F)c(CN4[C@@H](C)CC[C@H](c5ccccc5)S4(=O)=O)cc3F)CCOCC2)[nH]1` [Example 48, (3S,6R)-2-[[2,5-difluoro-4-[4-(5-methyl-4H-1,2,4-triazol-3-yl)tetrahydropyran-4-yl]phenyl]methyl]-3-methyl-6-phenyl-thiazinane 1,1-dioxide] the IC50 was 0.0216 µM.

Molecule `CCOC(=O)Cn1cnc(C2(c3cc(F)c(CN4[C@@H](C)CC[C@H](c5ccccc5)S4(=O)=O)cc3F)CCOCC2)n1` [Example 52, ethyl 2-[3-[4-[2,5-difluoro-4-[[(3S,6R)-3-methyl-1,1-dioxo-6-phenyl-thiazinan-2-yl]methyl]phenyl]tetrahydropyran-4-yl]-1,2,4-triazol-1-yl]acetate] has an IC50 of 0.071 µM.

Work on `CCOC(=O)c1nnc(C2(c3cc(F)c(CN4[C@@H](C)CC[C@H](c5ccccc5)S4(=O)=O)cc3F)CCOCC2)o1` [Example 60, ethyl 5-[4-[2,5-difluoro-4-[[(3S,6R)-3-methyl-1,1-dioxo-6-phenyl-thiazinan-2-yl]methyl]phenyl]tetrahydropyran-4-yl]-1,3,4-oxadiazole-2-carboxylate] yielded an IC50 of 0.0042 µM.

Molecule `C[C@H]1CC[C@H](c2ccccc2)S(=O)(=O)N1Cc1ccc(C2(NCc3ncco3)CCOCC2)cc1F` [Example 71, 4-[3-fluoro-4-[[(3S,6R)-3-methyl-1,1-dioxo-6-phenyl-thiazinan-2-yl]methyl]phenyl]-N-(oxazol-2-ylmethyl)tetrahydropyran-4-amine] has an IC50 of 0.0025 µM.

Work on `CCn1nccc1NC(=O)C1(c2ccc(CN3[C@@H](C)CC[C@H](c4ccccc4)S3(=O)=O)c(F)c2)CCOCC1` [Example 13] yielded an IC50 of 0.0632 µM.

Work on `C[C@H]1CC[C@H](c2ccccc2)S(=O)(=O)N1Cc1cc(F)c(C2(NC(=O)C3CCOC3)COC2)cc1F` (stereo in doubt) [Example 129, N-[3-[2,5-difluoro-4-[[(3S,6R)-3-methyl-1,1-dioxo-6-phenyl-thiazinan-2-yl]methyl]phenyl]oxetan-3-yl]tetrahydrofuran-3-carboxamide] yielded an IC50 of 0.0323 µM.
